Laboratory results published in ChEMBL document CHEMBL1146657, “A novel 18 beta-glycyrrhetinic acid analogue as a potent and selective inhibitor of 11 beta-hydroxysteroid dehydrogenase 2” (Bioorg Med Chem Lett, 2004).

Columns and labels:
[1] = biological target: 11-beta-hydroxysteroid dehydrogenase 1 (Rattus norvegicus) (UniProt P16232); test: Percent inhibition against 11-beta-hydroxysteroid dehydrogenase 1 of wistar rat liver cytosol at 10 uM was determined using [3H]cortisone
[2] = biological target: T1, 11-beta-hydroxysteroid dehydrogenase type 2 (Rattus norvegicus) (UniProt P50233); test: (§1) Percent inhibition against 11-beta-hydroxysteroid dehydrogenase 2 of wistar rat kidney at 10 uM was determined using [3H]cortisol
T1 sequence (whole entry): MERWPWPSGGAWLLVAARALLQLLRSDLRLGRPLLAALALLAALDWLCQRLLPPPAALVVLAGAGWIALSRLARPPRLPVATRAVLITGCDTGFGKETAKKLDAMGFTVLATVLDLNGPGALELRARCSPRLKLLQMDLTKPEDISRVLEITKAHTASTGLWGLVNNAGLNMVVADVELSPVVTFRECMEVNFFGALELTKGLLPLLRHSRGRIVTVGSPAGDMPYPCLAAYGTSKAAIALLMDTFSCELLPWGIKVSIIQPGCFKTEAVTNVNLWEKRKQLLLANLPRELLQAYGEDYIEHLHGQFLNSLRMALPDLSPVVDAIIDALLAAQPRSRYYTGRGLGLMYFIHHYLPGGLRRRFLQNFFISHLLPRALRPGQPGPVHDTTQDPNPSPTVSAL

[3] = biological target: T2, 11-beta-hydroxysteroid dehydrogenase type 2 (Rattus norvegicus, UniProt P50233); test: as §1
T2 sequence (P50233 whole entry): T1 sequence (whole entry)

Chain of 11-beta-hydroxysteroid dehydrogenase 1 (Rattus norvegicus) (P16232 whole entry, looked up): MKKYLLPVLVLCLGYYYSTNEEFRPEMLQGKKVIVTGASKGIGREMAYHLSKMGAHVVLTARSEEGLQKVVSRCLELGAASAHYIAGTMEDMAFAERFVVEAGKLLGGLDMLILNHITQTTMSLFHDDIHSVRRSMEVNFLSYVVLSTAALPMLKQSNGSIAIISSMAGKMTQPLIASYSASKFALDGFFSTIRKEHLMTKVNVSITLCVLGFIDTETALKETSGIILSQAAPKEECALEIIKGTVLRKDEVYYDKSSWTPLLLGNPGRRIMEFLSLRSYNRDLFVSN

| inhibition [1] | inhibition [2] | IC50 [3] | Structure (SMILES) |
| --- | --- | --- | --- |
| 25% | 35% | – | CCOC(=O)[C@H](C)NC(=O)[C@@]1(C)CC[C@]2(C)CC[C@]3(C)C(=CC(=O)C4[C@@]5(C)CC[C@H](O)C(C)(C)C5CC[C@]43C)[C@@H]2C1 (some centres not stated) |
| 34% | 20% | – | CC1(C)C2CC[C@]3(C)C(C(=O)C=C4[C@@H]5C[C@@](C)(C(=O)NN6CCOCC6)CC[C@]5(C)CC[C@]43C)[C@@]2(C)CC[C@@H]1O (some centres not stated) |
| 19% | 66% | – | CC1(C)C2CC[C@]3(C)C(C(=O)C=C4[C@@H]5C[C@@](C)(C(=O)NCCN6CCOCC6)CC[C@]5(C)CC[C@]43C)[C@@]2(C)CC[C@@H]1O (some centres not stated) |
| 36% | 92% | 4 pM | CC1(C)C2CC[C@]3(C)C(C(=O)C=C4[C@@H]5C[C@@](C)(C(=O)NCCO)CC[C@]5(C)CC[C@]43C)[C@@]2(C)CC[C@@H]1O (some centres not stated) |
| 90% | 103% | – | CC1(C)C2CC[C@]3(C)C(C(=O)C=C4[C@@H]5C[C@@](C)(C(=O)NC6CC6)CC[C@]5(C)CC[C@]43C)[C@@]2(C)CC[C@@H]1O (some centres not stated) |
| 85% | 101% | – | CC1(C)[C@@H](O)CC[C@]2(C)[C@H]3C(=O)C=C4[C@@H]5C[C@@](C)(C(=O)O)CC[C@]5(C)CC[C@@]4(C)[C@]3(C)CC[C@@H]12 |
| 88% | 98% | – | CC1(C)C2CC[C@]3(C)C(C(=O)C=C4[C@@H]5C[C@@](C)(C(=O)NCCCCCO)CC[C@]5(C)CC[C@]43C)[C@@]2(C)CC[C@@H]1O (some centres not stated) |
| 71% | 25% | – | CC1(C)C2CC[C@]3(C)C(C(=O)C=C4[C@@H]5C[C@@](C)(C(=O)NC6CCOC6=O)CC[C@]5(C)CC[C@]43C)[C@@]2(C)CC[C@@H]1O (some centres not stated) |
